From patent publication US20250163056A1, “NONMUSCLE MYOSIN II INHIBITORS” (The University of Florida Research Foundation, Inc., priority 2018, published 2025)

Assays:
Bovine cardiac myosin = Bovine cardiac myosin (Bos taurus (Bovine), UniProt Q9BE39); experiment: Cardiac muscle myosin II actin-activated ATPase assay (NADH-coupled); type: biochemical; set-up: key to Ratio CMMII:NMII Ki/EC50: NMII-sel: no Ki value for cardiac myosin II could be determined; the compounds had no detectable inhibitory properties versus the cardiac myosin II; conditions: for Ki: 300 nM cardiac myosin, 10 μM actin, 25° C., read-out: CMMII KI; for Ratio CMMII:NMII Ki/EC50: cardiac myosin II Ki over nonmuscle myosin II EC50
Bovine cardiac myosin, sequence (Q9BE39 whole entry): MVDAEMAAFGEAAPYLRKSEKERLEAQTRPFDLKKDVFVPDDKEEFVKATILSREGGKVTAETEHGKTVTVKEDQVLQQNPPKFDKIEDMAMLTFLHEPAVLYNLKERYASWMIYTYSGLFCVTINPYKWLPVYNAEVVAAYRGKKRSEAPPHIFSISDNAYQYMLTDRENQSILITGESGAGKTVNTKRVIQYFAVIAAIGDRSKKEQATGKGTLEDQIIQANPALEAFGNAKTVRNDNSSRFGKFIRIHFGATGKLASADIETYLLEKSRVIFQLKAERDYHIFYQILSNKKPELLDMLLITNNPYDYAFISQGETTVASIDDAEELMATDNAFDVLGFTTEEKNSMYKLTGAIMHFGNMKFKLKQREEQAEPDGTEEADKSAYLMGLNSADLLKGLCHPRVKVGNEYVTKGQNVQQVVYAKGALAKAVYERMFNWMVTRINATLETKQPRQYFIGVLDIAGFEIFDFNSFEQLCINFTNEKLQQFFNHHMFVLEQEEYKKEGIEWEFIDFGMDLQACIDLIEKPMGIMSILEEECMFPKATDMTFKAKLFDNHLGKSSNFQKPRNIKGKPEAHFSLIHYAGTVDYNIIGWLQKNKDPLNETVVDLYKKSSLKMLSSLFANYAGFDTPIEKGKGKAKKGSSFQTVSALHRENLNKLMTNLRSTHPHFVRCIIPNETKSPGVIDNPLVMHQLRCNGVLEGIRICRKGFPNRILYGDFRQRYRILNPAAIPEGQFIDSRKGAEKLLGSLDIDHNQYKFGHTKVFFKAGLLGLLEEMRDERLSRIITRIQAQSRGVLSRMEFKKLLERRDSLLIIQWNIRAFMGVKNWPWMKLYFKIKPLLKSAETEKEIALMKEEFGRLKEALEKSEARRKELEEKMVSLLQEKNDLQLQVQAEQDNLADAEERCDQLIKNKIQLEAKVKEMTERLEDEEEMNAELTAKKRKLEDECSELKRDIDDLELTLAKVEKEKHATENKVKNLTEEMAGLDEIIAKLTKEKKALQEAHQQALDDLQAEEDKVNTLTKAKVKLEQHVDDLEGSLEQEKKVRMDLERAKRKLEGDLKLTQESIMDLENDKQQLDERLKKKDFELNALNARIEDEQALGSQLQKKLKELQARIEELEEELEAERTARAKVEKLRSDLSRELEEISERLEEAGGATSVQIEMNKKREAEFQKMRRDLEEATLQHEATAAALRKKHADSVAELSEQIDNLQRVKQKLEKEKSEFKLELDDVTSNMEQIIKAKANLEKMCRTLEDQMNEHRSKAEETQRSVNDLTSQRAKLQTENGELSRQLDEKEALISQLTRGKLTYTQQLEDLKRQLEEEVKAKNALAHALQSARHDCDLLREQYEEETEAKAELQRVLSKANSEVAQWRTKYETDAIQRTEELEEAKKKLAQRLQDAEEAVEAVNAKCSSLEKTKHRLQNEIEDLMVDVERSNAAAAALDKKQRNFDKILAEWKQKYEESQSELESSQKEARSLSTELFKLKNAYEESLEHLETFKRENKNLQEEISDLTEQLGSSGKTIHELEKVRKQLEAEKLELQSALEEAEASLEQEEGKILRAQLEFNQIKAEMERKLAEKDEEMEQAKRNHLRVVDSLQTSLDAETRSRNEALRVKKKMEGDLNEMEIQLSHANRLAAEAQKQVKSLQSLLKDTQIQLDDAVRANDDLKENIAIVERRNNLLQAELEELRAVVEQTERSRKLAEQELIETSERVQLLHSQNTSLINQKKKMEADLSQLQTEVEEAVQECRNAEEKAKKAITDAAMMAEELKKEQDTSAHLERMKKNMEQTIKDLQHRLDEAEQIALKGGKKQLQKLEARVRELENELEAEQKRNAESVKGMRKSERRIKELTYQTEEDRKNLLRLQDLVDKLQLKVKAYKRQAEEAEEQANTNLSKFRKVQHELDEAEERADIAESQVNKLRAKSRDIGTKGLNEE
Bovine cardiac myosin, sequence (P85100 whole entry partner): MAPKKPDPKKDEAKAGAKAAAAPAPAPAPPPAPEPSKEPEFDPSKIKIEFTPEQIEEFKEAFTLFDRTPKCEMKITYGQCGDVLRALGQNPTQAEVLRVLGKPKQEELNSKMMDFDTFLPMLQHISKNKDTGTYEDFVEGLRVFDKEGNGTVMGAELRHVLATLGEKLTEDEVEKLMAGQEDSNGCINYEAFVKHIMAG
Bovine cardiac myosin, sequence (Q3SZE5 whole entry partner): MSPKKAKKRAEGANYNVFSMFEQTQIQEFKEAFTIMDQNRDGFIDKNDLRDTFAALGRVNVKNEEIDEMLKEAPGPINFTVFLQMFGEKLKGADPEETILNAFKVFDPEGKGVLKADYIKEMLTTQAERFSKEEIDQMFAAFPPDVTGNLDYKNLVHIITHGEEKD
Outline: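 Inhibitory constants came from a quadratic one-to-one binding fit of 16-point dose-responses (highest final 50 uM, triplicate). Rates were NADH-calibrated fluorescence slopes over 30 min at 25° C, with 300 nM bovine cardiac myosin, 10 μM actin and 1 mM ATP coupled through PK/LDH in pH 7.0 MOPS buffer.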

Rabbit skeletal myosin = experiment: Skeletal muscle myosin II actin-activated ATPase assay; type: biochemical; conditions: 20 nM skeletal muscle myosin II; read-out: SKMMII KI
Outline: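 Inhibitory constants come from a quadratic one-site fit of 16-point, triplicate dose-response data, highest compound concentration 50 uM. Rates are slopes of NADH fluorescence decline over 30 min, coupling ATP turnover of 20 nM rabbit skeletal myosin II with 10 μM actin and 1 mM ATP via PK/LDH, pH 7.0, 25 °C.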

[1] = Photostability, percentage remaining undegraded under illumination or in the dark; conditions: for Photostability 4 hours: percentage remaining undegraded after 4 hours illumination; for Photostability 24 hours: percentage remaining undegraded after 24 hours illumination; for Photostability Dark (24 h): percentage remaining undegraded in the dark

| SMILES | Ki (Bovine cardiac myosin) [µM] | Ratio CMMII:NMII Ki/EC50 (Bovine cardiac myosin) | Ki (Rabbit skeletal myosin) [µM] | Photostability 4 hours [1] [%] | Photostability 24 hours [1] [%] | Photostability Dark (24 h) [1] [%] |
| --- | --- | --- | --- | --- | --- | --- |
| N#Cc1ccc(N2CC[C@@]3(O)C(=O)c4cc(C(F)(F)F)ccc4N=C23)cc1 [BPN-0026608] | 50 | 11.6 | 1.7 | 86.7 | <1 | 97.5 |
| Cc1cc2c(cc1F)C(=O)[C@]1(O)CCN(c3ccccc3)C1=N2 [BPN-0026387] | 13 | 5.2 | 1.2 | 85.2 | 18.0 | 93.5 |
| Cc1ccc2c(c1)C(=O)[C@]1(O)CCN(c3ccc4sccc4c3)C1=N2 [BPN-0026651] |  | NMII-sel | 3.9 | 73.0 | 5.8 | 97.5 |
| Cc1ccc(N2CC[C@@]3(O)C(=O)c4cc(F)c(C)cc4N=C23)cc1 [BPN-0026579] | 5 | 5.0 | 0.37 | 77.3 | 8.5 | 93.7 |
| Cc1ncc(N2CC[C@@]3(O)C(=O)c4cc(F)c(C(F)(F)F)cc4N=C23)s1 [BPN-0026667] | 6.2 | 5.2 | 0.33 | 85.7 | 2.9 | >99 |
| Cc1cc2c(cc1C(F)(F)F)N=C1N(c3ccccc3)CC[C@@]1(O)C2=O [BPN-0026648] | 56 | 11.9 | 4.5 | 94.3 | 84.3 | 97.7 |
| Cc1cc2c(s1)N=C1N(c3ccc4ccoc4c3)CC[C@@]1(O)C2=O [BPN-0026639] | 14 | 4.2 | 1.1 | 89.8 | 49.5 | >99 |
| Cc1cc2c(cc1F)C(=O)[C@]1(O)CCN(c3ccccc3)C1=N2 [BPN-0026669] | 25 | 4.7 | 1.2 | 87.8 | 11.2 | >99 |
| Cc1ccc2c(c1)C(=O)[C@]1(O)CCN(c3ccc4occc4c3)C1=N2 [BPN-0026283] |  | NMII-sel | 5 | 39.4 | 10.8 | 92.0 |

Other lines, results leading:

| Ki (Bovine cardiac myosin) [µM] | Ratio CMMII:NMII Ki/EC50 (Bovine cardiac myosin) | Ki (Rabbit skeletal myosin) [µM] | Photostability 4 hours [1] [%] | Photostability 24 hours [1] [%] | Photostability Dark (24 h) [1] [%] | SMILES |
| --- | --- | --- | --- | --- | --- | --- |
|  | NMII-sel | 3 | 80.9 | 62.7 | 94.2 | COc1ncc(N2CC[C@@]3(O)C(=O)c4cc(C)c(C)cc4N=C23)cc1Cl [BPN-0028820] |
| 17 | 6.3 | 0.61 | >99 | 98.7 | >99 | CCc1cc2c(s1)N=C1N(c3ccc(C#N)cc3)CC[C@@]1(O)C2=O [BPN-0027038] |
| 11 | 5.5 | 0.64 | 54.2 | 7.8 | >99 | CCc1nc2cc(N3CC[C@@]4(O)C(=O)c5cc(C)c(C)cc5N=C34)ccc2s1 [BPN-0028918] |
| 21 | 3.6 | 4.5 | 98.8 | 96.8 | >99 | Cc1cc2c(s1)C(=O)[C@]1(O)CCN(c3ccc(C)c(Cl)c3)C1=N2 [BPN-0026882] |
| 37 | 30.8 | 2.6 | 94.8 | 21.4 | 95.7 | Cc1ccc2c(c1)C(=O)[C@]1(O)CCN(c3ccc4ncccc4c3)C1=N2 [BPN-0027040] |
| 30 | 7.1 | 2.7 | 96.7 | 73.1 | 98.4 | Cc1cc2c(cc1C)C(=O)[C@]1(O)CCN(c3cnc(CO)c(Cl)c3)C1=N2 [BPN-0028649] |
| 9 | 8.2 | 0.29 | 97.0 | 46.3 | 96.9 | Cc1sc2c(c1C)C(=O)[C@]1(O)CCN(c3ccc(I)cc3)C1=N2 [BPN-0027081] |
| 90 | 6.9 | 1.5 | 64 | 2 | 95.3 | Cc1cc2c(cc1C)C(=O)[C@]1(O)CCN(c3ccc4ncc(CO)cc4c3)C1=N2 [BPN-0028736] |
| 33 | 6.9 | 2 | 97.7 | 98.7 | 98.1 | Cc1cc(N2CC[C@@]3(O)C(=O)c4cc(C)c(C(F)(F)F)cc4N=C23)on1 [BPN-0027346] |
| 77 | 3.7 | 16 | 95.8 | 93.4 | 94.5 | Cc1cc2c(s1)C(=O)[C@]1(O)CCN(c3cccc(Br)c3)C1=N2 [BPN-0027074] |
|  | NMII-sel | 0.68 | 58.8 | 44.3 | >99 | Cc1ccc2c(c1)C(=O)[C@]1(O)CCN(c3cc4cccnc4s3)C1=N2 [BPN-0027469] |
